# Laboratory results reported in patent publication US20230365592A1 (Agios Pharmaceuticals, Inc., priority 2022, published 2023).
# Target: T1, human PAH with the R408W mutation (Homo sapiens, UniProt P00439, R408W)
# T1 construct: expressed in transfected cells
# T1 sequence (P00439 1-452 R408W): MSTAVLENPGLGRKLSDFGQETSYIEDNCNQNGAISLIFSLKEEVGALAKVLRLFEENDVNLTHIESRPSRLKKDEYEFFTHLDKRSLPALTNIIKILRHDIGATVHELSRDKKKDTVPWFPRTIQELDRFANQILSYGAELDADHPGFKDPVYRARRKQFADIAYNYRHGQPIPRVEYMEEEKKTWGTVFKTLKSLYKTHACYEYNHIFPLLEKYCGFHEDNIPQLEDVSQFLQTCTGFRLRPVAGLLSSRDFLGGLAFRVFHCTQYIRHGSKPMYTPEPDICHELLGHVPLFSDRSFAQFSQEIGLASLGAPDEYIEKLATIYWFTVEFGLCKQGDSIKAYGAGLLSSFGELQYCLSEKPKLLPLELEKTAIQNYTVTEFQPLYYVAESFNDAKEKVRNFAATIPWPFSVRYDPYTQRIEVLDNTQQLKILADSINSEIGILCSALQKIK
# Test: Cell Based Phenylalanine Flux Assay;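 note: after compound treatment, cells received sepiapterin plus isotope-labelled Phenylalanine for 4 hours, then labelled Tyrosine in the medium was quantified, 10-point 2-fold dilution series run in duplicate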
# Conditions: A375 cells expressing human R408W PAH; 24 hrs compound incubation; 13C-Tyrosine by LC-MS; average where tested multiple times; read-out: AC50
row,Structure (SMILES),AC50
1,"Cc1c([C@@H]2c3nc[nH]c3CCN2C(=O)c2ocnc2C(F)F)nn2ccccc12 [Example 784, (S)-(4-(difluoromethyl)oxazol-5-yl)(4-(3-methylpyrazolo[1,5-a]pyridin-2-yl)-6,7-dihydro-1H-imidazo[4,5-c]pyridin-5(4H)-yl)methanone]",< 500 nM
2,"Cc1c([C@H]2c3nc[nH]c3CCN2C(=O)c2ocnc2C(F)F)nn2ccccc12 [Example 785, (R)-(4-(difluoromethyl)oxazol-5-yl)(4-(3-methylpyrazolo[1,5-a]pyridin-2-yl)-6,7-dihydro-1H-imidazo[4,5-c]pyridin-5(4H)-yl)methanone]",1000 to 5000 nM
3,"Cc1c([C@@H]2c3nc[nH]c3CCN2C(=O)c2oc(C(C)(C)O)nc2C(F)F)nn2ccccc12 [Example 786, (S)-(4-(difluoromethyl)-2-(2-hydroxypropan-2-yl)oxazol-5-yl)(4-(3-methylpyrazolo[1,5-a]pyridin-2-yl)-6,7-dihydro-1H-imidazo[4,5-c]pyridin-5(4H)-yl)methanone]",< 500 nM
4,"Cc1cccc2cc([C@@H]3c4nc[nH]c4CCN3C(=O)c3ocnc3C(F)F)nn12 [Example 792, (S)-(4-(difluoromethyl)oxazol-5-yl)(4-(7-methylpyrazolo[1,5-a]pyridin-2-yl)-6,7-dihydro-1H-imidazo[4,5-c]pyridin-5(4H)-yl)methanone]",< 500 nM
5,"Cc1cccc2cc([C@H]3c4nc[nH]c4CCN3C(=O)c3ocnc3C(F)F)nn12 [Example 793, (R)-(4-(difluoromethyl)oxazol-5-yl)(4-(7-methylpyrazolo[1,5-a]pyridin-2-yl)-6,7-dihydro-1H-imidazo[4,5-c]pyridin-5(4H)-yl)methanone]",500 to 1000 nM
6,"Cc1cccc2cc([C@@H]3c4nc[nH]c4CCN3C(=O)c3oc(C(C)(C)O)nc3C(F)F)nn12 [Example 794, (S)-(4-(difluoromethyl)-2-(2-hydroxypropan-2-yl)oxazol-5-yl)(4-(7-methylpyrazolo[1,5-a]pyridin-2-yl)-6,7-dihydro-1H-imidazo[4,5-c]pyridin-5(4H)-yl)methanone]",< 500 nM
7,"Cc1cccc2cc([C@H]3c4nc[nH]c4CCN3C(=O)c3oc(C(C)(C)O)nc3C(F)F)nn12 [Example 795, (R)-(4-(difluoromethyl)-2-(2-hydroxypropan-2-yl)oxazol-5-yl)(4-(7-methylpyrazolo[1,5-a]pyridin-2-yl)-6,7-dihydro-1H-imidazo[4,5-c]pyridin-5(4H)-yl)methanone]",1000 to 5000 nM
8,Cc1ccc2cc([C@H]3c4nc[nH]c4CCN3C(=O)c3oc(C(C)(C)O)nc3C(F)F)nn2c1 [Example 805],1000 to 5000 nM
9,"CC(C)(O)c1nc(C(F)F)c(C(=O)N2CCc3[nH]cnc3[C@H]2c2cc3c(C(F)(F)F)cccn3n2)o1 [Example 810, (S)-(4-(difluoromethyl)-2-(2-hydroxypropan-2-yl)oxazol-5-yl)(4-(4-(trifluoromethyl)pyrazolo[1,5-a]pyridin-2-yl)-6,7-dihydro-1H-imidazo[4,5-c]pyridin-5(4H)-yl)methanone]",< 500 nM
10,"CC(C)(O)c1nc(C(F)F)c(C(=O)N2CCc3[nH]cnc3[C@@H]2c2cc3c(C(F)(F)F)cccn3n2)o1 [Example 811, (R)-(4-(difluoromethyl)-2-(2-hydroxypropan-2-yl)oxazol-5-yl)(4-(4-(trifluoromethyl)pyrazolo[1,5-a]pyridin-2-yl)-6,7-dihydro-1H-imidazo[4,5-c]pyridin-5(4H)-yl)methanone]",1000 to 5000 nM

# Now from value to compound:
row,AC50,Structure (SMILES)
1,500 to 1000 nM,"COc1cccn2nc([C@@H]3c4nc[nH]c4CCN3C(=O)c3nnc(-c4ccccn4)o3)cc12 [Example 779, (S)-(4-(4-methoxypyrazolo[1,5-a]pyridin-2-yl)-6,7-dihydro-1H-imidazo[4,5-c]pyridin-5(4H)-yl)(5-(pyridin-2-yl)-1,3,4-oxadiazol-2-yl)methanone]"
2,< 500 nM,"Cn1nc(C(F)F)nc1C(=O)N1CCc2[nH]cnc2[C@H]1c1cc2c(Cl)cccn2n1 [Example 780, (S)-(4-(4-chloropyrazolo[1,5-a]pyridin-2-yl)-6,7-dihydro-1H-imidazo[4,5-c]pyridin-5(4H)-yl)(3-(difluoromethyl)-1-methyl-1H-1,2,4-triazol-5-yl)methanone]"
3,< 500 nM,"O=C(c1ccnn1C(F)F)N1CCc2[nH]cnc2[C@H]1c1cc2c(Cl)cccn2n1 [Example 782, (S)-(4-(4-chloropyrazolo[1,5-a]pyridin-2-yl)-6,7-dihydro-1H-imidazo[4,5-c]pyridin-5(4H)-yl)(1-(difluoromethyl)-1H-pyrazol-5-yl)methanone]"
4,1000 to 5000 nM,"COc1ccc(-c2nnc(C(=O)N3CCc4[nH]cnc4[C@@H]3c3cc4c(F)cccn4n3)o2)nc1 [Example 789, (R)-(4-(4-fluoropyrazolo[1,5-a]pyridin-2-yl)-6,7-dihydro-1H-imidazo[4,5-c]pyridin-5(4H)-yl)(5-(5-methoxypyridin-2-yl)-1,3,4-oxadiazol-2-yl)methanone]"
5,> 5000 nM,"O=C(c1nnc(-c2ncccc2F)o1)N1CCc2[nH]cnc2[C@@H]1c1cc2c(F)cccn2n1 [Example 790, (R)-(4-(4-fluoropyrazolo[1,5-a]pyridin-2-yl)-6,7-dihydro-1H-imidazo[4,5-c]pyridin-5(4H)-yl)(5-(3-fluoropyridin-2-yl)-1,3,4-oxadiazol-2-yl)methanone]"
6,< 500 nM,"O=C(c1nnc(-c2cnn(C(F)F)c2)o1)N1CCc2[nH]cnc2[C@H]1c1cc2c(F)cccn2n1 [Example 796, (S)-(5-(1-(difluoromethyl)-1H-pyrazol-4-yl)-1,3,4-oxadiazol-2-yl)(4-(4-fluoropyrazolo[1,5-a]pyridin-2-yl)-6,7-dihydro-1H-imidazo[4,5-c]pyridin-5(4H)-yl)methanone]"
7,< 500 nM,"Cc1cccc2cc([C@@H]3c4nc[nH]c4CCN3C(=O)c3nnc(-c4ccccn4)o3)nn12 [Example 798, (S)-(4-(7-methylpyrazolo[1,5-a]pyridin-2-yl)-6,7-dihydro-1H-imidazo[4,5-c]pyridin-5(4H)-yl)(5-(pyridin-2-yl)-1,3,4-oxadiazol-2-yl)methanone]"
8,> 5000 nM,"Cc1cccc2cc([C@H]3c4nc[nH]c4CCN3C(=O)c3nnc(-c4cnn(C)c4)o3)nn12 [Example 801, (R)-(5-(1-methyl-1H-pyrazol-4-yl)-1,3,4-oxadiazol-2-yl)(4-(7-methylpyrazolo[1,5-a]pyridin-2-yl)-6,7-dihydro-1H-imidazo[4,5-c]pyridin-5(4H)-yl)methanone]"
9,> 5000 nM,"Cc1cccc2cc([C@H]3c4nc[nH]c4CCN3C(=O)c3nnc(-c4ccn(C)n4)o3)nn12 [Example 803, (R)-(5-(1-methyl-1H-pyrazol-3-yl)-1,3,4-oxadiazol-2-yl)(4-(7-methylpyrazolo[1,5-a]pyridin-2-yl)-6,7-dihydro-1H-imidazo[4,5-c]pyridin-5(4H)-yl)methanone]"
10,> 5000 nM,"Cc1cccn2nc([C@H]3c4nc[nH]c4CCN3C(=O)c3nnc(-c4cn(C)cn4)o3)cc12 [Example 807, (R)-(5-(1-methyl-1H-imidazol-4-yl)-1,3,4-oxadiazol-2-yl)(4-(4-methylpyrazolo[1,5-a]pyridin-2-yl)-6,7-dihydro-1H-imidazo[4,5-c]pyridin-5(4H)-yl)methanone]"
11,> 5000 nM,"Cn1cnc(-c2nnc(C(=O)N3CCc4[nH]cnc4[C@@H]3c3cc4c(F)cccn4n3)o2)c1 [Example 808, (R)-(4-(4-fluoropyrazolo[1,5-a]pyridin-2-yl)-6,7-dihydro-1H-imidazo[4,5-c]pyridin-5(4H)-yl)(5-(1-methyl-1H-imidazol-4-yl)-1,3,4-oxadiazol-2-yl)methanone]"
12,500 to 1000 nM,"Cn1cnc(-c2nnc(C(=O)N3CCc4[nH]cnc4[C@H]3c3cc4c(F)cccn4n3)o2)c1 [Example 809, (S)-(4-(4-fluoropyrazolo[1,5-a]pyridin-2-yl)-6,7-dihydro-1H-imidazo[4,5-c]pyridin-5(4H)-yl)(5-(1-methyl-1H-imidazol-4-yl)-1,3,4-oxadiazol-2-yl)methanone]"
13,500 to 1000 nM,"Cc1ccc2cc([C@@H]3c4nc[nH]c4CCN3C(=O)c3nnc(-c4ccccn4)o3)nn2c1 [Example 812, (S)-(4-(6-methylpyrazolo[1,5-a]pyridin-2-yl)-6,7-dihydro-1H-imidazo[4,5-c]pyridin-5(4H)-yl)(5-(pyridin-2-yl)-1,3,4-oxadiazol-2-yl)methanone]"
14,> 5000 nM,"Cc1ccc2cc([C@H]3c4nc[nH]c4CCN3C(=O)c3nnc(-c4ccccn4)o3)nn2c1 [Example 813, (R)-(4-(6-methylpyrazolo[1,5-a]pyridin-2-yl)-6,7-dihydro-1H-imidazo[4,5-c]pyridin-5(4H)-yl)(5-(pyridin-2-yl)-1,3,4-oxadiazol-2-yl)methanone]"
15,< 500 nM,"Cc1ccc2cc([C@@H]3c4nc[nH]c4CCN3C(=O)c3nnc(-c4ccn(C)n4)o3)nn2c1 [Example 814, (S)-(5-(1-methyl-1H-pyrazol-3-yl)-1,3,4-oxadiazol-2-yl)(4-(6-methylpyrazolo[1,5-a]pyridin-2-yl)-6,7-dihydro-1H-imidazo[4,5-c]pyridin-5(4H)-yl)methanone]"
16,> 5000 nM,"Cc1ccc2cc([C@H]3c4nc[nH]c4CCN3C(=O)c3nnc(-c4ccn(C)n4)o3)nn2c1 [Example 815, (R)-(5-(1-methyl-1H-pyrazol-3-yl)-1,3,4-oxadiazol-2-yl)(4-(6-methylpyrazolo[1,5-a]pyridin-2-yl)-6,7-dihydro-1H-imidazo[4,5-c]pyridin-5(4H)-yl)methanone]"
